Experimental data taken from patent US20020137929A1, “1 - (3-heterocyclylphenyl) isothiourea, -isourea, -guanidine and -amidine herbicidal agents” (Intellectual Property Department, BASF Aktiengesellschaft, priority 1998, published 2002).

Legend:
CYPIR (Rice Flatsedge) = experiment: Preemergence weed control under flooded paddy conditions; assay type: in vivo, Cyperus iria; conditions: rated 3-4 weeks after treatment
Method in brief: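 Seeds or propagules sown in top 0.5 cm of silt loam soil, flooded 1.5 to 3 cm above surface throughout. Compound in 50/50 v/v aqueous/acetone pipetted into flood water at about 0.0313 to 0.500 kg/ha. Visual 0-9 rating versus control after three to four weeks in greenhouse.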

GALAP (Galium) [1] = experiment: Postemergence herbicidal evaluation; assay type: in vivo, Galium aparine; conditions: postemergence
Method in brief: (§1)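 ~2-wk seedlings; postemergence spray, 40 psi; vehicle 1:1 acetone:water + 0.5% Tween 20; rate ≈0.0156–0.500 kg/ha; greenhouse hold; scored 4–5 wk after treatment, 0–9 scale vs control; repeat tests averaged.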

ORYSAT (Rice, Tebonnet) = experiment: Postemergence herbicidal evaluation; assay type: in vivo, Oryza sativa, (L.) Tebonnet; conditions: postemergence
Method in brief: as §1

GALAP (Galium) [2] = experiment: Preemergence herbicidal evaluation; assay type: in vivo, Galium aparine; conditions: rated 4-5 weeks after treatment
Method in brief: (§2)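 Scores (0–9) reflect visual comparison with control plants for stand, vigor, malformation, size and chlorosis. Compound was applied to the soil after sowing, before emergence, as an aqueous acetone spray (about 0.0156–0.500 kg/ha), and cups were kept in a greenhouse for 4–5 weeks.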

AMBEL (Ragweed, Common) [3] = experiment: Preemergence herbicidal evaluation; assay type: in vivo, Ambrosia artemisifolia; conditions: rated 4-5 weeks after treatment
Method in brief: as §2

ABUTH (Velvetleaf) = experiment: Preemergence herbicidal evaluation; assay type: in vivo, Abutilon theophrasti; conditions: rated 4-5 weeks after treatment
Method in brief: as §2

[4] = system: IPOHE (Morningglory, Ivyleaf); experiment: Preemergence herbicidal evaluation; assay type: in vivo, Ipomoea hederacea; conditions: rated 4-5 weeks after treatment
Method in brief: as §2

SETVI (Foxtail, Green) [5] = experiment: Preemergence herbicidal evaluation; assay type: in vivo, Setaria viridis; conditions: rated 4-5 weeks after treatment
Method in brief: as §2

[6] = system: GLXMAW (Soybean, Williams); experiment: Postemergence herbicidal evaluation; assay type: in vivo, Glycine max, (L.) Merr. cv Williams; conditions: postemergence
Method in brief: as §1

ECHCG (Barnyardgrass) = experiment: Preemergence herbicidal evaluation; assay type: in vivo, Echinochloa crus-galli; conditions: rated 4-5 weeks after treatment
Method in brief: as §2

[7] = system: CHEAL (Lambsquarters, Common); experiment: Postemergence herbicidal evaluation; assay type: in vivo, Chenopodium album; conditions: postemergence
Method in brief: as §1

CASOB (Sicklepod) = experiment: Preemergence herbicidal evaluation; assay type: in vivo, Cassia obtusifolia; conditions: rated 4-5 weeks after treatment
Method in brief: as §2

SETVI (Foxtail, Green) [8] = experiment: Postemergence herbicidal evaluation; assay type: in vivo, Setaria viridis; conditions: postemergence
Method in brief: as §1

ZEAMX (Corn, Field) = experiment: Preemergence herbicidal evaluation; assay type: in vivo, Zea mays; conditions: rated 4-5 weeks after treatment
Method in brief: as §2

AMBEL (Ragweed, Common) [9] = experiment: Postemergence herbicidal evaluation; assay type: in vivo, Ambrosia artemisifolia; conditions: postemergence
Method in brief: as §1

[10] = system: CHEAL (Lambsquarters, Common); experiment: Preemergence herbicidal evaluation; assay type: in vivo, Chenopodium album; conditions: rated 4-5 weeks after treatment
Method in brief: as §2

[11] = system: IPOHE (Morningglory, Ivyleaf); experiment: Postemergence herbicidal evaluation; assay type: in vivo, Ipomoea hederacea; conditions: postemergence
Method in brief: as §1

In the case of CCOC(=O)CN1C(=O)C(CC(=O)NS(=O)(=O)C(C)C)SC1=Nc1cc(-n2c(=O)cc(C(F)(F)F)n(C)c2=O)c(F)cc1Cl (stereo not shown) [Compound 117, Ethyl 2-{{2-chloro-5-[3,6-dihydro-3-methyl-2,6-dioxo-4-(trifluoromethyl)-1(2H)-pyrimidinyl]-4-fluorophenyl}imino}-5-{[(isopropylsulfonyl)-carbamoyl]methyl}-4-oxo-3-thiazolidineacetate], the “herbicidal effect rating, CYPIR” value (CYPIR (Rice Flatsedge); 0.0313 kg/ha) is reported as 0.0, the “herbicidal effect rating, CYPIR” value (CYPIR (Rice Flatsedge); 0.0625 kg/ha) is reported as 2.0 and the “herbicidal effect rating, CYPIR” value (CYPIR (Rice Flatsedge); 0.1250 kg/ha) is reported as 5.0. The “herbicidal effect rating, CYPIR” value (CYPIR (Rice Flatsedge); 0.2500 kg/ha) was 6.0, the “herbicidal rating GALAP” value (GALAP (Galium) [1]; rate 0.0158 kg/ha) was 1.0 and the “herbicidal rating GALAP” value (GALAP (Galium) [1]; rate 0.0315 kg/ha) was 1.0. For the same molecule, the “herbicidal rating GALAP” value (GALAP (Galium) [1]; rate 0.0630 kg/ha) was 1.0, the “herbicidal rating ORYSAT” value (ORYSAT (Rice, Tebonnet); rate 0.0158 kg/ha) was 2.0 and the “herbicidal rating ORYSAT” value (ORYSAT (Rice, Tebonnet); rate 0.0315 kg/ha) was 2.0. The “herbicidal rating ORYSAT” value (ORYSAT (Rice, Tebonnet); rate 0.0630 kg/ha) was 3.0, the “Preemergence herbicidal rating GALAP” value (GALAP (Galium) [2]; rate 0.0156 kg/ha) was 0.0 and the “Preemergence herbicidal rating GALAP” value (GALAP (Galium) [2]; rate 0.0313 kg/ha) was 0.0. The “Preemergence herbicidal rating GALAP” value (GALAP (Galium) [2]; rate 0.0625 kg/ha) was 0.0, the “Preemergence herbicidal rating GALAP” value (GALAP (Galium) [2]; rate 0.1250 kg/ha) was 3.0 and the “Preemergence herbicidal rating GALAP” value (GALAP (Galium) [2]; rate 0.2500 kg/ha) was 7.0. The “Preemergence herbicidal rating AMBEL” value (AMBEL (Ragweed, Common) [3]; rate 0.0156 kg/ha) was 0.0, the “Preemergence herbicidal rating AMBEL” value (AMBEL (Ragweed, Common) [3]; rate 0.0313 kg/ha) was 0.0 and the “Preemergence herbicidal rating AMBEL” value (AMBEL (Ragweed, Common) [3]; rate 0.0625 kg/ha) was 0.0. For the same molecule, the “Preemergence herbicidal rating AMBEL” value (AMBEL (Ragweed, Common) [3]; rate 0.1250 kg/ha) was 0.0, the “Preemergence herbicidal rating AMBEL” value (AMBEL (Ragweed, Common) [3]; rate 0.2500 kg/ha) was 7.0 and the “Preemergence herbicidal rating ABUTH” value (ABUTH (Velvetleaf); rate 0.0156 kg/ha) was 0.0. For the same molecule, the “Preemergence herbicidal rating ABUTH” value (ABUTH (Velvetleaf); rate 0.0313 kg/ha) was 0.0, the “Preemergence herbicidal rating ABUTH” value (ABUTH (Velvetleaf); rate 0.0625 kg/ha) was 0.0 and the “Preemergence herbicidal rating ABUTH” value (ABUTH (Velvetleaf); rate 0.1250 kg/ha) was 1.0. For the same molecule, the “Preemergence herbicidal rating ABUTH” value (ABUTH (Velvetleaf); rate 0.2500 kg/ha) was 9.0, the “Preemergence herbicidal rating IPOHE” value ([4]; rate 0.0156 kg/ha) was 0.0 and the “Preemergence herbicidal rating IPOHE” value ([4]; rate 0.0313 kg/ha) was 0.0. For the same molecule, the “Preemergence herbicidal rating IPOHE” value ([4]; rate 0.0625 kg/ha) was 0.0, the “Preemergence herbicidal rating IPOHE” value ([4]; rate 0.1250 kg/ha) was 0.0 and the “Preemergence herbicidal rating IPOHE” value ([4]; rate 0.2500 kg/ha) was 9.0. The “Preemergence herbicidal rating SETVI” value (SETVI (Foxtail, Green) [5]; rate 0.0156 kg/ha) was 1.0, the “Preemergence herbicidal rating SETVI” value (SETVI (Foxtail, Green) [5]; rate 0.0313 kg/ha) was 0.0 and the “Preemergence herbicidal rating SETVI” value (SETVI (Foxtail, Green) [5]; rate 0.0625 kg/ha) was 1.0. The “Preemergence herbicidal rating SETVI” value (SETVI (Foxtail, Green) [5]; rate 0.1250 kg/ha) was 0.0, the “Preemergence herbicidal rating SETVI” value (SETVI (Foxtail, Green) [5]; rate 0.2500 kg/ha) was 0.0 and the “herbicidal rating GLXMAW” value ([6]; rate 0.0158 kg/ha) was 5.0. For the same molecule, the “herbicidal rating GLXMAW” value ([6]; rate 0.0315 kg/ha) was 5.0, the “herbicidal rating GLXMAW” value ([6]; rate 0.0630 kg/ha) was 6.0 and the “Preemergence herbicidal rating ECHCG” value (ECHCG (Barnyardgrass); rate 0.0156 kg/ha) was 0.0. The “Preemergence herbicidal rating ECHCG” value (ECHCG (Barnyardgrass); rate 0.0313 kg/ha) was 0.0, the “Preemergence herbicidal rating ECHCG” value (ECHCG (Barnyardgrass); rate 0.0625 kg/ha) was 0.0 and the “Preemergence herbicidal rating ECHCG” value (ECHCG (Barnyardgrass); rate 0.1250 kg/ha) was 0.0. The “Preemergence herbicidal rating ECHCG” value (ECHCG (Barnyardgrass); rate 0.2500 kg/ha) was 0.0, the “herbicidal rating CHEAL” value ([7]; rate 0.0158 kg/ha) was 0.0 and the “herbicidal rating CHEAL” value ([7]; rate 0.0315 kg/ha) was 4.0. The “herbicidal rating CHEAL” value ([7]; rate 0.0630 kg/ha) was 9.0, the “Preemergence herbicidal rating CASOB” value (CASOB (Sicklepod); rate 0.0156 kg/ha) was 0.0 and the “Preemergence herbicidal rating CASOB” value (CASOB (Sicklepod); rate 0.0313 kg/ha) was 0.0. The “Preemergence herbicidal rating CASOB” value (CASOB (Sicklepod); rate 0.0625 kg/ha) was 0.0, the “Preemergence herbicidal rating CASOB” value (CASOB (Sicklepod); rate 0.1250 kg/ha) was 1.0 and the “Preemergence herbicidal rating CASOB” value (CASOB (Sicklepod); rate 0.2500 kg/ha) was 1.0. The “herbicidal rating SETVI” value (SETVI (Foxtail, Green) [8]; rate 0.0158 kg/ha) was 1.0, the “herbicidal rating SETVI” value (SETVI (Foxtail, Green) [8]; rate 0.0315 kg/ha) was 2.0 and the “herbicidal rating SETVI” value (SETVI (Foxtail, Green) [8]; rate 0.0630 kg/ha) was 2.0. For the same molecule, the “Preemergence herbicidal rating ZEAMX” value (ZEAMX (Corn, Field); rate 0.0156 kg/ha) was 0.0, the “Preemergence herbicidal rating ZEAMX” value (ZEAMX (Corn, Field); rate 0.0313 kg/ha) was 0.0 and the “Preemergence herbicidal rating ZEAMX” value (ZEAMX (Corn, Field); rate 0.0625 kg/ha) was 0.0. The “Preemergence herbicidal rating ZEAMX” value (ZEAMX (Corn, Field); rate 0.1250 kg/ha) was 1.0, the “Preemergence herbicidal rating ZEAMX” value (ZEAMX (Corn, Field); rate 0.2500 kg/ha) was 0.0 and the “herbicidal rating AMBEL” value (AMBEL (Ragweed, Common) [9]; rate 0.0158 kg/ha) was 4.0. For the same molecule, the “herbicidal rating AMBEL” value (AMBEL (Ragweed, Common) [9]; rate 0.0315 kg/ha) was 5.0, the “herbicidal rating AMBEL” value (AMBEL (Ragweed, Common) [9]; rate 0.0630 kg/ha) was 7.0 and the “Preemergence herbicidal rating CHEAL” value ([10]; rate 0.0156 kg/ha) was 9.0. The “Preemergence herbicidal rating CHEAL” value ([10]; rate 0.0313 kg/ha) was 9.0, the “Preemergence herbicidal rating CHEAL” value ([10]; rate 0.0625 kg/ha) was 9.0 and the “Preemergence herbicidal rating CHEAL” value ([10]; rate 0.1250 kg/ha) was 6.0. For the same molecule, the “Preemergence herbicidal rating CHEAL” value ([10]; rate 0.2500 kg/ha) was 9.0, the “herbicidal rating IPOHE” value ([11]; rate 0.0158 kg/ha) was 9.0 and the “herbicidal rating IPOHE” value ([11]; rate 0.0315 kg/ha) was 9.0. For the same molecule, the “herbicidal rating IPOHE” value ([11]; rate 0.0630 kg/ha) was 9.0.
